± gives the expanded uncertainty stated by the source.

For data set [1] the following is noted: 101.33 kPa, Liquid; for viscosity: Falling or rolling sphere viscometry; for mass density: Vibrating tube method.
The nature of data set [2]: refractive index (Na D-line) (dimensionless). Particulars: 298.15 K; 101.33 kPa; Liquid; Standard Abbe refractometry.

For `CCCCO` [butan-1-ol], the viscosity (usually the resistance of a fluid to flow) in data set [1] (293.15 K) came to 2.983 ± 0.082 mPa·s; in data set [1] (298.15 K), 2.617 ± 0.072 mPa·s; in data set [1] (303.15 K), 2.306 ± 0.063 mPa·s; in data set [1] (308.15 K), 2.04 ± 0.056 mPa·s; in data set [1] (313.15 K), 1.811 ± 0.05 mPa·s. In addition, the mass density – broadly, the mass of a sample divided by its volume – in data set [1] (293.15 K) is on record as 809.7 ± 0.38 kg/m3; in data set [1] (298.15 K), 805.9 ± 0.38 kg/m3; in data set [1] (303.15 K), 802.05 ± 0.37 kg/m3; in data set [1] (308.15 K) it was 798.17 ± 0.37 kg/m3; in data set [1] (313.15 K), 794.26 ± 0.37 kg/m3. In addition, the refractive index (as a rule, the speed of light in vacuum divided by its phase velocity in the sample) in data set [2] is listed as 1.3973 ± 0.0011.

As for `CC(=O)O.CCCCN` [butylammonium acetate], the viscosity in data set [1] (293.15 K) is 771.69 ± 71 mPa·s; in data set [1] (298.15 K), 546.35 ± 44 mPa·s; in data set [1] (303.15 K), 397.17 ± 28 mPa·s; in data set [1] (308.15 K), 294.59 ± 18 mPa·s; in data set [1] (313.15 K), 222.24 ± 12 mPa·s. Further, the mass density in data set [1] (293.15 K) is 959.61 ± 0.42 kg/m3; in data set [1] (298.15 K), 956.44 ± 0.42 kg/m3; in data set [1] (303.15 K) it was 953.33 ± 0.42 kg/m3; in data set [1] (308.15 K) it was 950.15 ± 0.42 kg/m3; in data set [1] (313.15 K), 946.98 ± 0.42 kg/m3. Moreover, in data set [2], the refractive index is recorded as 1.4426 ± 0.0011.

Turning to `CCO` [ethanol], the viscosity worked out at 1.241 ± 0.034 mPa·s in data set [1] (293.15 K); 1.128 ± 0.031 mPa·s in data set [1] (298.15 K); 1.029 ± 0.028 mPa·s in data set [1] (303.15 K); 0.92 ± 0.025 mPa·s in data set [1] (308.15 K); 0.842 ± 0.023 mPa·s in data set [1] (313.15 K). Moreover, the mass density in data set [1] (293.15 K) is recorded as 789.54 ± 0.37 kg/m3; in data set [1] (298.15 K) it was 785.25 ± 0.37 kg/m3; in data set [1] (303.15 K), 780.93 ± 0.37 kg/m3; in data set [1] (308.15 K), 776.57 ± 0.37 kg/m3; in data set [1] (313.15 K), 772.18 ± 0.37 kg/m3. Besides, in data set [2], the refractive index stood at 1.3594 ± 0.0011.

For the compound `CO` [methanol], the viscosity in data set [1] (293.15 K) is given as 0.588 ± 0.016 mPa·s; in data set [1] (298.15 K) it was 0.557 ± 0.015 mPa·s; in data set [1] (303.15 K), 0.519 ± 0.014 mPa·s; in data set [1] (308.15 K), 0.49 ± 0.013 mPa·s; in data set [1] (313.15 K), 0.462 ± 0.013 mPa·s. The mass density was found to be 791.28 ± 0.37 kg/m3 in data set [1] (293.15 K); 786.56 ± 0.37 kg/m3 in data set [1] (298.15 K); 781.83 ± 0.37 kg/m3 in data set [1] (303.15 K); 777.07 ± 0.37 kg/m3 in data set [1] (308.15 K); 772.29 ± 0.37 kg/m3 in data set [1] (313.15 K). The refractive index in data set [2] was found to be 1.3265 ± 0.0011.

For `CCCO` [propan-1-ol], the viscosity in data set [1] (293.15 K) was found to be 2.229 ± 0.061 mPa·s; in data set [1] (298.15 K), 1.975 ± 0.054 mPa·s; in data set [1] (303.15 K), 1.757 ± 0.048 mPa·s; in data set [1] (308.15 K) it was 1.568 ± 0.043 mPa·s; in data set [1] (313.15 K), 1.406 ± 0.039 mPa·s. The mass density came out at 803.55 ± 0.37 kg/m3 in data set [1] (293.15 K); 799.55 ± 0.37 kg/m3 in data set [1] (298.15 K); 795.52 ± 0.37 kg/m3 in data set [1] (303.15 K); 791.44 ± 0.37 kg/m3 in data set [1] (308.15 K); 787.34 ± 0.37 kg/m3 in data set [1] (313.15 K). In data set [2], the refractive index was 1.3834 ± 0.0011.

The values are drawn from the NIST ThermoML archive (doi:10.1021/je200707b).
